# From patent publication US10465005B2, “JAML specific binding agents, antibodies, and uses related thereto” (Emory University, priority 2011, dated 2019)
# T1: murine CAR (Mus musculus, UniProt P97792)
# T1 sequence (P97792 20-365): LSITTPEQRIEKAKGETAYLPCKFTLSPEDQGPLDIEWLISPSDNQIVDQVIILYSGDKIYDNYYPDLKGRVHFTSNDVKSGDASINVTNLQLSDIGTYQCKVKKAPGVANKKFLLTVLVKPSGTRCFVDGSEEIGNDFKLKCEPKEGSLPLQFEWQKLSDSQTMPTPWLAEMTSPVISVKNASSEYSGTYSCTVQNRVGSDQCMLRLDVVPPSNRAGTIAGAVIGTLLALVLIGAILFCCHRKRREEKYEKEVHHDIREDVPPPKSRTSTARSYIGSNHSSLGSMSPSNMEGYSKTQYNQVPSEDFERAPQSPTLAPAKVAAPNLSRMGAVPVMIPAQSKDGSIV
# T2: epithelial CAR (Mus musculus, UniProt P97792)
# T2 construct: from tissue; host or cells: mouse colonic mucosa
# T2 sequence (P97792 20-365): T1 sequence (P97792 20-365)
# T3: CAR (Mus musculus, UniProt P97792)
# T3 construct: from tissue; host or cells: mouse colonic mucosa
# T3 sequence (P97792 20-365): T1 sequence (P97792 20-365)
# B1: Ad5: recombinant adenoviral fiber knob protein Ad5, reported to bind murine CAR (protein)
# chain: GAITVGNKNNDKLTLWTTPAPSPNCRLNAEKDAKLTLVLTKCGSQILATVSVLAVKGSLAPISGTVQSAHLIIRFDENGVLLNNSFLDPEYWNFRNGDLTEGTAYTNAVGFMPNLSAYPKSHGKTAKSNIVSQVYLNGDKTKPVTLTITLNGTQETGDTTPSAYSMSFSWDWSGHNYINEIFATSSYTFSYIAQE
# modifications: left off: small tags and cut ends
# Key:
# [1] = system: JAML shedding from differentiated HL60; assay: JAML shedding with protease inhibitors, differentiated HL60; format: cell-based, human; details: PMA 200 nM; cocktail 1:50, AEBSF 1 mM, PMSF 2 mM, Phenanthroline 5 mM, NEM 6 mM; sandwich ELISA; FIG. 6A
# Protocol: JAML shedding from differentiated HL60 was assayed as described in the legend for FIG. 5. Protease inhibitors were added to cell suspensions during incubation in H^+ with or without PMA. Inhibitors used were Sigma inhibitor cocktail (Cat #P8340) used at 1:50 dilution, AEBSF 1 mM, PMSF 2 mM, Phenanthroline 5 mM and NEM 6 mM.
# (§1) To explore the mechanisms for release of JAML from the surface of differentiated HL60 and PLB-985 cells during activation with PMA, PMA was added to cells in the presence or absence of a variety of protease inhibitors. The protease inhibitor cocktail from Sigma that targets serine proteases was used as well as cysteine proteases and several independent inhibitors. […] (Le Gall et al., 2003, JBC 278 No46 45255-45268).
# Cells were suspended at 100×10^6 cells/ml in 50 ml centrifuge tubes. PMA was added at a final concentration of 200 nM and tubes incubated at 37° C. of 30 min. Supernatants were collected by centrifugation. To eliminate the presence of macroparticles in the supernatants, ultracentrifugation was performed in a table-top microcentrifuge (Beckman TL-100) at 100,000 g for 30 minutes. The “cleared” supernatants were assayed for the presence of soluble JAML.
# Purified antibody DW100 (100 μl/well of 10 μg/ml dilution) was coated onto a high binding 96 well plate (Immulon II) overnight at 4° C. or 1½ hr at 37° C. After washing, 200 μl of 5% blocking solution (Roche) was added to each well for 1 hr at room temperature (RT). After washing, 100 μl supernatant samples in triplicates were added to the wells as well as serial dilutions of purified sJAML-His and incubated for 1 hr RT. After washing, 100 μl biotinylated DW216 antibodies was added at 10 μg/ml. This was followed after a wash by Streptavidin-HRP diluted at 1:4000. The wells were washed again and after addition of ABTS substrate, wells were analyzed using a microplate reader at 405 nm wavelength.
# monocytes = assay: Surface JAML on monocytes after PMA activation; format: cell-based, human; details: 15 minutes at 37° C., FIG. 11
# Protocol: Monocytes were isolated and purified from whole blood of healthy human donors, incubated on ice with either IgG control (solid histograms) or purified anti-JAML antibodies (5 μg/ml), followed by Alexa Fluor 488 conjugated goat anti mouse antibody before (NoTx) and after PMA activation (PMA, 15 minutes at 37° C.). JAML surface expression was analyzed by flow cytometry.
# Following the observation of a complete loss of JAML on PMNs that underwent TEM and with the use of JAML specific mAbs, it was determined that the loss of JAML was induced by PMN activation and that it correlated to the degree of activation and the strength of the given stimulus. […] JAML shedding is not restricted to PMNs alone. JAML is also expressed on blood monocytes. […] As monocytes trail the PMNs infiltrating mucosal surfaces, in addition to PMNs they would also be a source for soluble JAML, further enhancing its effects on epithelial function. […] The shedding of JAML is believed to be due to a zinc-dependent metalloprotease that is inhibited by phenanthroline, a zinc chelator molecule and TAPI-2, a hydroxymate acid-base derivative which inhibits zinc-dependent metalloprotease activities by binding specifically to the catalytic site of the enzyme.
# PMN = assay: Surface JAML on PMN after activation (flow cytometry); format: cell-based, human; details: PMA 200 nM, suspension, 15 minutes at 37° c.; FIG. 4A
# Protocol: Freshly isolated PMN, not treated (No Tx), or treated with either fMLF (100 nM) or PMA (200 nM) in suspension for 15 minutes at 37° c. were fixed with 1% paraformaldehyde, stained for JAML (DW100) and CD11b/CD18 (CBRM 1/29) and analyzed for surface expression by flow cytometry.
# Since prior to transepithelial migration PMNs exit the blood vessels, whether JAML expression on PMNs would be preserved during migration across endothelial cells (HDMECs) towards a 10 μM fMLF, as described previously was evaluated. Indeed under similar conditions only a small portion of surface JAML was lost, but most of it was still detectable on PMN surface (FIG. 3B).
# Thus whether PMN activation alone is sufficient to induce the loss of surface JAML or whether direct contact with the epithelium is required was examined. To test this, the expression of JAML was analyzed on PMNs that were stimulated in suspension with fMLF (100 μM) and PMA (200 nM). PMNs were allowed to adhere to epithelial cells for 1 hour. The loss of JAML could be correlated to the degree of PMN activation. […] This was again confirmed by immunofluorescence (FIG. 4B). PMN adhesion to epithelium in the absence of proinflamatory stimulus (as measured by flow cytometry, gating on Mac-1 positive PMNs) was also sufficient to induce a partial loss of surface JAML (FIG. 4C), in agreement with the small loss of surface JAML observed after migration through endothelial cells (FIG. 3B). […] Next, the observed loss of JAML during PMN activation may be due to its shedding from PMN surface and thus would be detectable in the supernatant of activated cells. To test this hypothesis, two antibodies, DW100 and DW216 that recognize two different epitopes of JAML were used in a sandwich ELISA assay to capture solubilized molecules in the supernatant of activated PMN.
# [2] = system: HL-60 and PLB-985 cell lines; assay: Surface JAML on HL-60 and PLB-985 after PMA activation; format: cell-based, human; details: 200 nM PMA, 30 minutes at 37° C.; FIG. 5A
# Protocol: Both HL60 and PLB985 (non-differentiated and differentiated) were washed in Hanks solution with Ca^++ and Mg^++ (H^+) at 30×10^6 cells per condition and resuspended in 350 μl H^+ or H^+ containing 200 nM PMA followed by 30 minutes incubation at 37° C. A cell aliquot was set aside for flow cytometry and cells were stained with monoclonal CBRM1/29 (CD11b/CD18) or DW100 anti JAML followed by Alexa Fluor 488 conjugated goat anti mouse antibody.
# The findings of JAML shedding were extended to both HL-60 and PLB-985 cell lines. […] Upon activation, human neutrophils release microparticles,called ectosomes, directly from the cell surface and that ectosomes are implicated in the inflammatory response (Eken et al., 2008, J. Immunol. 180, 817-824). To test whether JAML molecules were released in microparticles, supernatants from activated cells were subjected to ultracentrifuge (100,000×g). […] Thus, JAML is indeed shed into the medium upon PMN activation as a soluble molecule.
# [3] = system: JAML shedding from PLB985; assay: JAML shedding with protease inhibitors, PLB985; format: cell-based, human; details: Phenanthroline; TAPI-2 1 μM
# Protocol: FIG. 5C. Inhibition of JAML shedding on the cell surface of PLB985 was confirmed by FACS analysis of cells stained with DW216. In the presence of inhibitors, activated cells maintained the same level of surface expression as the non-activated cells.
# as §1
# Cells suspensions of adherent cells were prepared by trypsinization with Trypsin-EDTA (Sigma). After washing, cells were resuspended in FACS buffer (2% FBS in PBS+0.1% Na Azide). Approximately, 3-5×10^5 cells were incubated with 5-10 μg/ml of primary antibody for 1 hr at 4° C. followed by 3 washes in FACS buffer and incubation with 1 μg/ml secondary antibody conjugated with Alexa-488. After final washes, cells were analyzed using FACS Calibur. […] All samples were stained for JAML (DW100 mAb) and CD11b/CD18 (CBRM 1/29), and only CD11b/CD18 positive cells (PMNs) were analyzed for JAML expression.
# [4] = system: JAML release from CHO-JAML-His transfectants; assay: JAML release with protease inhibitors, CHO-JAML-His transfectants; format: cell-based
# murine CAR = target: T1, murine CAR; details: cited from earlier work
# epithelial CAR = target: T2, epithelial CAR; assay: Immunofluorescence of wounded mouse colonic tissue; format: in vivo; details: I.P. administered his-tagged protein; 1 day after wounding; FIG. 13E
# CAR = target: T3, CAR; assay: Colonic mucosal wound healing in vivo; details: mice; I.P. twice a day 10 μg in 200 μl PBS; endoscopic imaging; FIG. 13B
# Protocol: (§2) To examine this in-vivo, the effect of inhibition of CAR function was analyzed on mucosal wound recovery. […] See Witherden et al., Science, 2010, 329(5996): 1205-1210. Whether administration of recombinant Ad5 inhibits colonic wound healing was examined in mice in a fashion analogous to the endogenous CAR ligand, JAML. Colonic mucosal wounds were generated using a mouse colonoscope, and wound recovery was examined 2 and 4 days post wounding by endoscopic imaging in the presence of Ad5, Ad11 (administered I.P, twice a day 10 μg in 200 μl PBS) or PBS alone.
# as §2, with “function” for “function was analyzed”, “recovery was analyzed.” for “recovery.”, “colonoscope (FIG. 13, Panel A),” for “colonoscope,”, “alone. […] The delayed wound closure was also evident from histological analysis (representative images, FIG. 13, Panel C) and whole mount preparation (representative images, FIG. 13, Panel D).” for “alone.”
molecule,measurement,setting,value
NCCc1ccc(S(=O)(=O)F)cc1 [AEBSF],"inhibition of PMA-induced JAML shedding, differentiated HL60",[1],No decrease in JAML shedding
"CCN1C(=O)C=CC1=O [N-Ethyl maleimide, N-Ethylmaleimide]","inhibition of PMA-induced JAML shedding, differentiated HL60",[1],No decrease in JAML shedding
"CCCCCCCCCCCCCC(=O)O[C@@H]1[C@@H](C)[C@@]2(O)[C@@H](C=C(CO)C[C@]3(O)C(=O)C(C)=C[C@@H]23)[C@@H]2C(C)(C)[C@]12OC(C)=O [PMA, Phorbol Myristate Acetate]",JAML expression on monocytes after PMA,monocytes,lost upon activation with PMA
same,surface JAML on PMN after PMA,PMN,complete loss of surface JAML from PMNs
same,surface JAML on HL-60 and PLB-985 after PMA,[2],complete loss of surface JAML
"O=S(=O)(F)Cc1ccccc1 [PMSF, Phenylmethylsulfonyl fluoride]","inhibition of PMA-induced JAML shedding, differentiated HL60",[1],showed some inhibition
CC(C)C[C@H](CC(=O)NO)C(=O)N[C@H](C(=O)N[C@@H](C)C(=O)NCCN)C(C)(C)C [TAPI-2],"inhibition of PMA-induced JAML shedding, PLB985",[3],inhibition of shedding
same,"inhibition of PMA-induced JAML release, CHO-JAML-His transfectants",[4],strongly inhibited JAML release due to PMA activation
B1,binding to murine CAR and competition with JAML binding (Witherden et al. 2010),murine CAR,has been reported to bind murine CAR and compete with JAML binding
same,colocalization with epithelial CAR at wounded areas,epithelial CAR,colocalizes with epithelial CAR at wounded areas
same,mucosal wound healing 4 days after wounding,CAR,~20%
